The subject of one assay is KB. Kind of assay: Cytotoxicity in human KB cells. Type of assay: functional, cell-based. The note with it: for IC50: Homo sapiens, KB.
The target of assay [1] is T1, Integrin alpha-V/beta-3 (Homo sapiens, UniProt P05106+P06756). Kind of assay: Binding affinity to human integrin alphaVbeta3 incubated for 1 hr by ELISA based solid phase integrin binding assay. Type of assay: protein-complex assay.
For the next assay, the target named is Integrin alpha-5/beta-1 (Homo sapiens, UniProt P05556+P08648). Kind of assay: Binding affinity to human integrin alpha5beta1 incubated for 1 hr by ELISA based solid phase integrin binding assay. The format is protein-complex assay.
Sequence of Integrin alpha-5/beta-1 (P05556 21-798 limits assumed): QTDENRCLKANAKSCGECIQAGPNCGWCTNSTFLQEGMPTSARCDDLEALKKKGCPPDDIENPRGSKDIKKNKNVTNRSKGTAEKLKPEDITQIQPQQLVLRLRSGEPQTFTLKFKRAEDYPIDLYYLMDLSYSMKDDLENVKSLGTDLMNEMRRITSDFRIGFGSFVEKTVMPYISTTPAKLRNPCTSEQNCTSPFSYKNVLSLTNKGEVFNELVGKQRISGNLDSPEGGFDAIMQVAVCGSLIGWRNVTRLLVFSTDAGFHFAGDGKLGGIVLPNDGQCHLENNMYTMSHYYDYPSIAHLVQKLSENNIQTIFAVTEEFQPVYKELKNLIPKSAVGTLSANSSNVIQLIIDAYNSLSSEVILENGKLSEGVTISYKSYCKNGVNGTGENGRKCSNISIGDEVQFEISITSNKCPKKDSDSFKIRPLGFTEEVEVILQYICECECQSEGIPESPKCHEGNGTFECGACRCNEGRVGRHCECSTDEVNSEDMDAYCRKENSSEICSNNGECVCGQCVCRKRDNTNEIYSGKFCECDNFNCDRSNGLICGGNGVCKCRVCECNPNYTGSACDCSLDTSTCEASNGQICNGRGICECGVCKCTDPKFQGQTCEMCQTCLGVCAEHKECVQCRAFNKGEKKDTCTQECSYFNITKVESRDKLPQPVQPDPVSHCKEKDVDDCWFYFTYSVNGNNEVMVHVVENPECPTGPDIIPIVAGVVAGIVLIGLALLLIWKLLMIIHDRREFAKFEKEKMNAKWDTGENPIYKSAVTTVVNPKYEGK
Sequence of Integrin alpha-5/beta-1 (P08648 42-894 limits assumed): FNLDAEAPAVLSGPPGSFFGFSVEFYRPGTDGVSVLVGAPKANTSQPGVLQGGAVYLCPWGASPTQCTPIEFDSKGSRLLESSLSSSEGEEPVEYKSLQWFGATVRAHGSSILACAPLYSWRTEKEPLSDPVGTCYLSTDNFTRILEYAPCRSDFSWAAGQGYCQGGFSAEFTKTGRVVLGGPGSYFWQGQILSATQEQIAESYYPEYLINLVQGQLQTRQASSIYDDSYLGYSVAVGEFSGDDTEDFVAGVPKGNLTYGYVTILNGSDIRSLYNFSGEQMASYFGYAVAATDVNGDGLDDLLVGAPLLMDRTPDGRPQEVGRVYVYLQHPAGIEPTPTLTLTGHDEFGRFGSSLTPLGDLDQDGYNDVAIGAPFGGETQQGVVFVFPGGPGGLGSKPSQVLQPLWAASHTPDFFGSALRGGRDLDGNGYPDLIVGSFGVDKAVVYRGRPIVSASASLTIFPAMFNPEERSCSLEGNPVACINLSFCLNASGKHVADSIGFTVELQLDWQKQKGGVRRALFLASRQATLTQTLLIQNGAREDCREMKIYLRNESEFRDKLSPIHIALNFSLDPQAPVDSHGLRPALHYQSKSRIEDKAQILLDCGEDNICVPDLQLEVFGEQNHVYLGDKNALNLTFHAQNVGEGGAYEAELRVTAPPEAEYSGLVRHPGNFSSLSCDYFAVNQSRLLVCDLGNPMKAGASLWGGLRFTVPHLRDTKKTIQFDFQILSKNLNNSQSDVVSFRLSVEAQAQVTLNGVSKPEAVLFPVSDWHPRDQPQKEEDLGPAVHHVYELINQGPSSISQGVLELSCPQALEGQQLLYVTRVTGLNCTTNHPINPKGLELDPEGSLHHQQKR
Sequence of Integrin alpha-5/beta-1 (P08648 895-1049 limits assumed): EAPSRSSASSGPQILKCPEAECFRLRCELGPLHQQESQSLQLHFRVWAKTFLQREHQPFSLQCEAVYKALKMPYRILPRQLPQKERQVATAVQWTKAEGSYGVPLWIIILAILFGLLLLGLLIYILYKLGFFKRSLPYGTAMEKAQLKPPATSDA
Assay [2] in a line: Selectivity index, ratio of IC50 for binding affinity to human integrin alpha5beta1 to IC50 for binding affinity to human integrin alphaVbeta3.
A further assay concerns the target Integrin alpha-V/beta-6 (Homo sapiens, UniProt P06756+P18564). Kind of assay: Binding affinity to human integrin alphaVbeta6 incubated for 1 hr by ELISA based solid phase integrin binding assay. The format is protein-complex assay. (In general: An ELISA detects its analyte on a solid surface through an enzyme-linked reagent.)
A further assay deals with Integrin alpha-V/beta-8 (Homo sapiens, UniProt P06756+P26012). Kind of assay: Binding affinity to human integrin alphaVbeta8 incubated for 1 hr by ELISA based solid phase integrin binding assay. The format is protein-complex assay.
Sequence of Integrin alpha-V/beta-8 (P06756 31-889 limits assumed): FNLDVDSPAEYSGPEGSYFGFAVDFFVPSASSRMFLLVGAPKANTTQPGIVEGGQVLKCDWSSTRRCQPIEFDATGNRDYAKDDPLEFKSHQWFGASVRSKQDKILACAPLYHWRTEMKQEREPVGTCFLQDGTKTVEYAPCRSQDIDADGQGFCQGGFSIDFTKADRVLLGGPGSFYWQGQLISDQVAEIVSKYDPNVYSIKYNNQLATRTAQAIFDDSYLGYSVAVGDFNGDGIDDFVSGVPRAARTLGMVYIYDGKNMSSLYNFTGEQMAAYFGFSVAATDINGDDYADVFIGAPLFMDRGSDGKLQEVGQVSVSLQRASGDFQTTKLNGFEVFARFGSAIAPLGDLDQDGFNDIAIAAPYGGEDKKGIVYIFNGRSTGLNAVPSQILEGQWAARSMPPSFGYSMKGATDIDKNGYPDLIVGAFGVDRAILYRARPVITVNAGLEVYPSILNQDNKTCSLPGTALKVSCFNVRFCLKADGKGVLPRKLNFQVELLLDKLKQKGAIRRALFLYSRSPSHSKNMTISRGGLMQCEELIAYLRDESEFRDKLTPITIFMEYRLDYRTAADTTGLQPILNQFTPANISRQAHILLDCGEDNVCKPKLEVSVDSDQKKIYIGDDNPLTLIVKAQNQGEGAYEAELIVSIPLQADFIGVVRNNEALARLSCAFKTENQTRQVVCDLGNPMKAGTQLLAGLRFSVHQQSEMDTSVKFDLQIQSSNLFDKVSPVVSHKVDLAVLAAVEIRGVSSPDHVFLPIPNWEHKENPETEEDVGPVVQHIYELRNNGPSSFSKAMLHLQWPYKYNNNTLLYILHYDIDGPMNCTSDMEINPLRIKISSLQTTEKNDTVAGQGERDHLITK
Sequence of Integrin alpha-V/beta-8 (P06756 891-1048 limits assumed): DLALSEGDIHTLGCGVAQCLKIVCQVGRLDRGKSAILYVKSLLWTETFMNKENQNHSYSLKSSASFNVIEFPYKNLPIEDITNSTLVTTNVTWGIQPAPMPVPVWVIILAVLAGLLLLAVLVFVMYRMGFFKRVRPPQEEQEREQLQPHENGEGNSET
Sequence of Integrin alpha-V/beta-8 (P26012 43-769 limits assumed): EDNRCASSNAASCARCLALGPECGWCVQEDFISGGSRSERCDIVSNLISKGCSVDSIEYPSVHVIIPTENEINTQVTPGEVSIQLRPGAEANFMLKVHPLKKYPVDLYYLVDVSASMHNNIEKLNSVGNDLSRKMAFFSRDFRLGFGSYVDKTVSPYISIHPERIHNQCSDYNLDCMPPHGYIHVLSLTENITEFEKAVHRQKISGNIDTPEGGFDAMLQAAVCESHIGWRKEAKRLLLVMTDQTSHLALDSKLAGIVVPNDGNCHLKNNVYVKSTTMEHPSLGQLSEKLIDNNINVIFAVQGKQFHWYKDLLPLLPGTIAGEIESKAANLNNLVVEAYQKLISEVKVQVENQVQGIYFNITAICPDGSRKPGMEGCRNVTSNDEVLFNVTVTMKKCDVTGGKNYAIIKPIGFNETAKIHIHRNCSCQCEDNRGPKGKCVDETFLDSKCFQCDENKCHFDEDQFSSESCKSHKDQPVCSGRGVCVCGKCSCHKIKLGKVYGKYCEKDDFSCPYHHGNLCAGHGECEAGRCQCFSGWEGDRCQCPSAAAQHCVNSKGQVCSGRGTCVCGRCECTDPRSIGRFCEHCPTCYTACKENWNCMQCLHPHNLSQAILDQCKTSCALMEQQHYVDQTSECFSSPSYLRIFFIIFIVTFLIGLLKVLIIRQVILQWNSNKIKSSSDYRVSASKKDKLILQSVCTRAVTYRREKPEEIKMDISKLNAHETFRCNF
Assay [3] has as its target Integrin alpha-IIb/beta-3 (Homo sapiens, UniProt P05106+P08514). Kind of assay: Binding affinity to human integrin alpha2bbeta3 incubated for 1 hr by ELISA based solid phase integrin binding assay. The format is protein complex.
Assay [4] addresses T1, Integrin alpha-V/beta-3. Kind of assay: Binding affinity to integrin alphaVbeta3 expressed in human M21 cells at 250 uM incubated for 30 mins by confocal microscopy. Type of assay: cell-based.

Each structure is given as a SMILES string. Active and inactive are the calls of the source. No cut-off for these calls is given here. Some results are limits rather than exact numbers.

Sequence of Integrin alpha-V/beta-6 (P06756 31-889 limits assumed): as the sequence (P06756 31-889 limits assumed) above
Sequence of Integrin alpha-V/beta-6 (P06756 891-1048 limits assumed): as the sequence (P06756 891-1048 limits assumed) above
Sequence of Integrin alpha-V/beta-6 (P18564 22-788 limits assumed): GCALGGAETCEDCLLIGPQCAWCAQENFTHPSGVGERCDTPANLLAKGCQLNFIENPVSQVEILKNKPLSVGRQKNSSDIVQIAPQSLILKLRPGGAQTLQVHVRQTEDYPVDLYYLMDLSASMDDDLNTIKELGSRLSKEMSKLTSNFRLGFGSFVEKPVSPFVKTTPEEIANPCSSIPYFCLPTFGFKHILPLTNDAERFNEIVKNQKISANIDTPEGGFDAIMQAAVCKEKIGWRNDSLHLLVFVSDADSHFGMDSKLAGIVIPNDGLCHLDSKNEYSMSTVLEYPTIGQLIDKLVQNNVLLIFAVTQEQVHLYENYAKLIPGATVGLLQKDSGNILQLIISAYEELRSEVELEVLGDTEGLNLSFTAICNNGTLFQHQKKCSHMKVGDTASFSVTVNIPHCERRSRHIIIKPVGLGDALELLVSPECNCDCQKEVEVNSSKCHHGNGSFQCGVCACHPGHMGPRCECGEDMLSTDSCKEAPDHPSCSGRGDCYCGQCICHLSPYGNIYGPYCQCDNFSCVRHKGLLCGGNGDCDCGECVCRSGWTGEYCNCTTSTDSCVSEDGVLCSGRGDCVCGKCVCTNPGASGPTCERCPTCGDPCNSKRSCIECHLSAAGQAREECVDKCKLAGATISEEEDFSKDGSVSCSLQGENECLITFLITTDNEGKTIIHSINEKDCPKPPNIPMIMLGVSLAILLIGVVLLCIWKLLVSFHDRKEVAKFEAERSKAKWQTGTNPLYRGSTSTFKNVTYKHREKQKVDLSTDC

As to `COc1ccc(C[C@H]2NC(=O)/C=C/C[C@@H]([C@H](C)[C@@H]3O[C@H]3c3ccccc3)OC(=O)[C@H](CC(C)C)OC(=O)C(C)(C)CNC2=O)cc1`, the IC50 (usually the midpoint of a concentration-inhibition curve) in the assay with KB came to 0.073 nM.

In the assay with KB, `O=[N+]([O-])/C=C1\NCCN1Cc1ccc(Cl)nc1` yielded an LC90 of 0.32 ppm.

Regarding `CC(C)[C@@H]1NC(=O)[C@@H](Cc2c[nH]c3c(I)cccc23)NC(=O)[C@H](CC(=O)O)NC(=O)CNC(=O)[C@H](CCCNC(=N)N)NC1=O`, the IC50 at Integrin alpha-V/beta-3 [1] came to 0.43 nM; on Integrin alpha-5/beta-1, 49.2 nM. Further, the Ratio IC50 in assay [2] came to 114.

Consider `CC(C)[C@@H]1C(=O)N[C@@H](CCCNC(=N)N)C(=O)NCC(=O)N[C@@H](CC(=O)O)C(=O)N[C@@H](Cc2c[nH]c3c(Br)cccc23)C(=O)N1C`, for which the figures for the IC50 on Integrin alpha-V/beta-3 [1] and at Integrin alpha-5/beta-1 were 311 nM and > 10000 nM, respectively.

Consider `CC(C)[C@@H]1NC(=O)[C@@H](Cc2c[nH]c3cc(Cl)ccc23)NC(=O)[C@H](CC(=O)O)NC(=O)CNC(=O)[C@H](CCCNC(=N)N)NC1=O`, for which the IC50 is 0.24 nM at Integrin alpha-V/beta-3 [1] and 39.1 nM on Integrin alpha-5/beta-1. Besides, the Ratio IC50 in assay [2] worked out at 163.

Compound `O=[N+]([O-])/C=C1\NCCN1Cc1ccc(Br)nc1` yielded an LC90 in the assay on KB of 1.6 ppm.

With `CC(C)[C@@H]1NC(=O)[C@@H](Cc2c[nH]c3c(-c4ccc5ccc6cccc7ccc4c5c67)cccc23)NC(=O)[C@H](CC(=O)O)NC(=O)CNC(=O)[C@H](CCCNC(=N)N)NC1=O`, the Ratio IC50 in assay [2] came to 407. Moreover, the IC50 on Integrin alpha-V/beta-6 is 299 nM; on Integrin alpha-V/beta-8 it was 1010 nM; in assay [3], > 10000 nM. Besides, the result at Integrin alpha-V/beta-3 [4] was Active.

As for `COc1ccc(C[C@H]2NC(=O)/C=C/C[C@@H]([C@H](C)[C@@H]3O[C@H]3c3ccccc3)OC(=O)[C@H](CC(C)C)OC(=O)C(C)(C)CNC2=O)cc1Cl`, half-maximal inhibition with KB (IC50) was put at 0.009 nM.

Turning to `CC(C)[C@@H]1NC(=O)[C@@H](Cc2c[nH]c3ccccc23)NC(=O)[C@H](CC(=O)O)NC(=O)CNC(=O)[C@H](CCCNC(=N)N)NC1=O`, the IC50 was 1.15 nM on Integrin alpha-V/beta-3 [1] and 9.9 nM on Integrin alpha-5/beta-1. For the same compound, the Ratio IC50 in assay [2] came to 8.6.

For the compound `CC(C)[C@H]1NC(=O)[C@H](Cc2c[nH]c3c(Br)cccc23)NC(=O)[C@H](CC(=O)O)NC(=O)CNC(=O)[C@H](CCCNC(=N)N)NC1=O`, the IC50 stood at 0.53 nM at Integrin alpha-V/beta-3 [1] and 472 nM on Integrin alpha-5/beta-1. In assay [2], the Ratio IC50 is 891.

In the case of `CC(C)[C@@H]1NC(=O)[C@@H](Cc2c[nH]c3cc(Br)ccc23)NC(=O)[C@H](CC(=O)O)NC(=O)CNC(=O)[C@H](CCCNC(=N)N)NC1=O`, the results for the IC50 at Integrin alpha-V/beta-3 [1] and at Integrin alpha-5/beta-1 were 0.53 nM and 43.3 nM, respectively. Moreover, the Ratio IC50 in assay [2] was 82.

For the compound `CC(C)[C@@H]1NC(=O)[C@@H](Cc2c[nH]c3c(-c4c5ccccc5cc5ccccc45)cccc23)NC(=O)[C@H](CC(=O)O)NC(=O)CNC(=O)[C@H](CCCNC(=N)N)NC1=O`, the IC50 on Integrin alpha-V/beta-3 [1] is 0.59 nM; at Integrin alpha-5/beta-1, 471 nM; at Integrin alpha-V/beta-6 it was 32 nM; at Integrin alpha-V/beta-8, 193 nM; in assay [3] it was > 10000 nM. Besides, the Ratio IC50 in assay [2] is 798.

With `CC(C)[C@@H]1NC(=O)[C@@H](Cc2c[nH]c3c(-c4cccc(N)c4)cccc23)NC(=O)[C@H](CC(=O)O)NC(=O)CNC(=O)[C@H](CCCNC(=N)N)NC1=O`, the IC50 on Integrin alpha-V/beta-3 [1] is 0.52 nM; at Integrin alpha-5/beta-1 it was 610 nM; on Integrin alpha-V/beta-6 it was 36 nM; on Integrin alpha-V/beta-8, 220 nM; in assay [3] it was > 10000 nM. Besides, the Ratio IC50 in assay [2] was determined as 1170.

In the case of `CC(C)[C@H]1C(=O)N[C@@H](CCCNC(=N)N)C(=O)NCC(=O)N[C@@H](CC(=O)O)C(=O)N[C@H](Cc2c[nH]c3c(Br)cccc23)C(=O)N1C`, the IC50 on Integrin alpha-V/beta-3 [1] is 1.37 nM; at Integrin alpha-5/beta-1 it was 10.2 nM. For the same compound, the Ratio IC50 in assay [2] is 7.4.

For `COc1ccc(-c2cccc3c(C[C@H]4NC(=O)[C@H](CC(=O)O)NC(=O)CNC(=O)[C@H](CCCNC(=N)N)NC(=O)[C@H](C(C)C)NC4=O)c[nH]c23)cc1`, the IC50 was 0.74 nM on Integrin alpha-V/beta-3 [1]; 66 nM at Integrin alpha-5/beta-1; 50 nM at Integrin alpha-V/beta-6; 76.5 nM on Integrin alpha-V/beta-8; > 10000 nM in assay [3]. Further, in assay [2], the Ratio IC50 is 89.

`O=[N+]([O-])/C=C1\NCCN1Cc1cccnc1`: the LC90 with KB was found to be 8 ppm.

On to `O=[N+]([O-])/C=C1\NCCN1Cc1ccc(F)nc1`, for which the LC90 in the assay with KB worked out at 0.32 ppm.

`CC(C)[C@@H]1NC(=O)[C@@H](Cc2c[nH]c3c(Br)cccc23)NC(=O)[C@H](CC(=O)O)NC(=O)CNC(=O)[C@H](CCCNC(=N)N)NC1=O`: the figures for the IC50 on Integrin alpha-V/beta-3 [1] and on Integrin alpha-5/beta-1 were 0.62 nM and 74.3 nM, respectively. For the same compound, the Ratio IC50 in assay [2] stood at 120.

Take `CC(C)[C@@H]1NC(=O)[C@@H](Cc2c[nH]c3c(-c4ccc(C(=O)O)cc4)cccc23)NC(=O)[C@H](CC(=O)O)NC(=O)CNC(=O)[C@H](CCCNC(=N)N)NC1=O`: the IC50 on Integrin alpha-V/beta-3 [1] was 0.52 nM; on Integrin alpha-5/beta-1, 22 nM; on Integrin alpha-V/beta-6 it was 54 nM; on Integrin alpha-V/beta-8, 39.2 nM; in assay [3] it was > 10000 nM. For the same compound, the Ratio IC50 in assay [2] is 42.

Take `CC(C)[C@@H]1NC(=O)[C@@H](Cc2c[nH]c3c(F)cccc23)NC(=O)[C@H](CC(=O)O)NC(=O)CNC(=O)[C@H](CCCNC(=N)N)NC1=O`: the IC50 at Integrin alpha-V/beta-3 [1] came to 0.35 nM; at Integrin alpha-5/beta-1 it was 58.3 nM. The Ratio IC50 in assay [2] came out at 167.

Turning to `CC(C)[C@@H]1NC(=O)[C@@H](Cc2c[nH]c3c(Cl)cccc23)NC(=O)[C@H](CC(=O)O)NC(=O)CNC(=O)[C@H](CCCNC(=N)N)NC1=O`, the IC50 was determined as 0.34 nM on Integrin alpha-V/beta-3 [1] and 91.3 nM at Integrin alpha-5/beta-1. In addition, the Ratio IC50 in assay [2] was determined as 269.

These data come from ChEMBL document CHEMBL4765475, “Tuning the Biological Activity of RGD Peptides with Halotryptophans†” (J Med Chem, 2021).
